Columns and labels:
[1] = molecular target: Protein arginine N-methyltransferase 1 (Homo sapiens, UniProt Q99873); assay: Selectivity interaction (Scintillation proximity assays) EUB0000255b PRMT1
[2] = molecular target: RAC-alpha serine/threonine-protein kinase (Homo sapiens, UniProt P31749); assay: Selectivity interaction (KinomeScan (DiscoverX)) EUB0000655a AKT1; conditions: at 10 µM
[3] = molecular target: Mitogen-activated protein kinase 1 (Homo sapiens, UniProt P28482); assay: Selectivity interaction (ProQinase) EUB0000171b MAPK1
[4] = molecular target: Tyrosine-protein kinase Fes/Fps (Homo sapiens) (UniProt P07332); assay: Selectivity interaction (KinomeScan (DiscoverX)) EUB0000666a FES; conditions: at 10 µM
[5] = molecular target: T1, Tyrosine-protein kinase JAK3 (Homo sapiens, UniProt P52333); assay: Selectivity interaction (Kinase panel (33PanQinase(R) Activity Assay)) EUB0000877a JAK3
T1 sequence (P52333 whole entry): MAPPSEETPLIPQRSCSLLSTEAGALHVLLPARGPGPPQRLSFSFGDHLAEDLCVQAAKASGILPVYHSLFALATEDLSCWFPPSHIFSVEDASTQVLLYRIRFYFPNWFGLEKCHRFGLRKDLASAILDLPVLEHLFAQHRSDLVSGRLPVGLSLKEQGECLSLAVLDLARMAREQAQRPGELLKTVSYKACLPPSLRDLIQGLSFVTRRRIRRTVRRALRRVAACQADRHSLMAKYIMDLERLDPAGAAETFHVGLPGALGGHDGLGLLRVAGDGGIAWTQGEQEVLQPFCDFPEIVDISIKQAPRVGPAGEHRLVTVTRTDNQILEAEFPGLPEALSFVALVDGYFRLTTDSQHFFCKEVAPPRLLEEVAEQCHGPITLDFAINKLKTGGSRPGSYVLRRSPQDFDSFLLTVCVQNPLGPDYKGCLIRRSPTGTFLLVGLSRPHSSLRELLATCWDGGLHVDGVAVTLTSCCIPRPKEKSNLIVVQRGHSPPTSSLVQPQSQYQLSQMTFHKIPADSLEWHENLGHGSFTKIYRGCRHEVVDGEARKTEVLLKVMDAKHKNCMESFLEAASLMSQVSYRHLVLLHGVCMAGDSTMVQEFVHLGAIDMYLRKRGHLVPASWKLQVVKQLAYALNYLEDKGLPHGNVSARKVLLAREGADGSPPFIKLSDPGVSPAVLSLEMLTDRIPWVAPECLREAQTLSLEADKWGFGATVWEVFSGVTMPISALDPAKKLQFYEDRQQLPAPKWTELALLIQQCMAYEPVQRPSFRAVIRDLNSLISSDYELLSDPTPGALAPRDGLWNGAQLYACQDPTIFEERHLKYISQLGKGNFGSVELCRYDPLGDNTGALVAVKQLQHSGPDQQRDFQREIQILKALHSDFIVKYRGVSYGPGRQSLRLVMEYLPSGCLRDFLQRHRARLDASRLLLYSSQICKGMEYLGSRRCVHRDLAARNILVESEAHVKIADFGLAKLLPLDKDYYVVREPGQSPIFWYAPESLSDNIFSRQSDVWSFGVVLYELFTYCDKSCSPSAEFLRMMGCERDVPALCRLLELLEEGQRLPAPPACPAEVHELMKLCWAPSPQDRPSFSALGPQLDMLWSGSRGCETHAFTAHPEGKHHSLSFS

[6] = molecular target: Serine/threonine-protein kinase 10 (Homo sapiens) (UniProt O94804); assay: Selectivity interaction (ActivX KiNativ screen (kinase selectivity in THP-1 cell lysates)) EUB0000639a STK10; type: subcellular; conditions: lysate, at 0.04 µM
[7] = molecular target: Activin receptor type-2B (Homo sapiens) (UniProt Q13705); assay: Selectivity interaction (KinomeScan (DiscoverX)) EUB0001049a ACVR2B; conditions: at 1 µM
[8] = molecular target: Dual specificity protein kinase CLK3 (Homo sapiens, UniProt P49761); assay: Selectivity interaction (Enzymatic assay (Eurofins)) EUB0001049a CLK3
[9] = molecular target: Homeodomain-interacting protein kinase 3 (Homo sapiens, UniProt Q9H422); assay: Selectivity interaction (KinomeScan (DiscoverX)) EUB0000695a HIPK3; conditions: at 100 nM
[10] = molecular target: T2, Serine/threonine-protein kinase Nek2 (Homo sapiens) (UniProt P51955); conditions: at 10 µM
T2 sequence (whole entry): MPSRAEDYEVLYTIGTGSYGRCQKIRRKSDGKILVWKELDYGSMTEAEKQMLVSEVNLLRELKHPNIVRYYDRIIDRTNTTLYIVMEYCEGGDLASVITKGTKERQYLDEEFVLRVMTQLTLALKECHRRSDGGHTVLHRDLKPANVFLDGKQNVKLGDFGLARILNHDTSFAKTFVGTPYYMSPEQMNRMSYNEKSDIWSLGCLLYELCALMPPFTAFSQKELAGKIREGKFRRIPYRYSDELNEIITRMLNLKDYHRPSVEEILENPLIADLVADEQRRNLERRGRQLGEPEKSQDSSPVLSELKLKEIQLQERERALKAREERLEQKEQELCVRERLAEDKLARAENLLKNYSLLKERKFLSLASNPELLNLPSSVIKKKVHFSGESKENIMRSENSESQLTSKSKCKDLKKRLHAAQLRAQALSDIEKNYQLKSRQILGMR

[11] = molecular target: Tyrosine-protein kinase Lck (Homo sapiens, UniProt P06239); assay: Selectivity interaction (Kinase panel (literature)) EUB0001199aCl LCK; conditions: at 1 µM
[12] = molecular target: Protein kinase C delta type (Homo sapiens) (UniProt Q05655); assay: Selectivity interaction (KinomeScan (DiscoverX)) EUB0000618a PRKCD; conditions: at 10 µM
Chain of Protein kinase C delta type (Homo sapiens) (Q05655 whole entry, looked up): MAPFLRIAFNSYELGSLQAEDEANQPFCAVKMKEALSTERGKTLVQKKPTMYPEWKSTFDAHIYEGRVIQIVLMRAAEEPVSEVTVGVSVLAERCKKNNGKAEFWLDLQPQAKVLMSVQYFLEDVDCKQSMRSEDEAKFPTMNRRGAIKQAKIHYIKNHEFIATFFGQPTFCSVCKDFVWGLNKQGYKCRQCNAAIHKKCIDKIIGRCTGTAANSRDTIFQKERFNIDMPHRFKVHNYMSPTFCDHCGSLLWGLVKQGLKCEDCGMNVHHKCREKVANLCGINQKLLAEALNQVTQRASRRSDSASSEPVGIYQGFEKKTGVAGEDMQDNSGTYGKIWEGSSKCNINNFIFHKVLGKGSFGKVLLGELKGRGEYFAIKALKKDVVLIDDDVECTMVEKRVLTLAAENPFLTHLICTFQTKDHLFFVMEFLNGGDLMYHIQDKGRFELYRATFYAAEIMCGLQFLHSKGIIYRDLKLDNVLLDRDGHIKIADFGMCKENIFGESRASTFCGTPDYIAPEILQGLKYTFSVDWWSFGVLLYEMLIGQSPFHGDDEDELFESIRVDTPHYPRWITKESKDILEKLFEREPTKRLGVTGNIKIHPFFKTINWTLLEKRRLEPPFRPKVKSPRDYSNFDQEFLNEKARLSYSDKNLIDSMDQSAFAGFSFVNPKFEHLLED

Chain of Mitogen-activated protein kinase 1 (P28482 whole entry): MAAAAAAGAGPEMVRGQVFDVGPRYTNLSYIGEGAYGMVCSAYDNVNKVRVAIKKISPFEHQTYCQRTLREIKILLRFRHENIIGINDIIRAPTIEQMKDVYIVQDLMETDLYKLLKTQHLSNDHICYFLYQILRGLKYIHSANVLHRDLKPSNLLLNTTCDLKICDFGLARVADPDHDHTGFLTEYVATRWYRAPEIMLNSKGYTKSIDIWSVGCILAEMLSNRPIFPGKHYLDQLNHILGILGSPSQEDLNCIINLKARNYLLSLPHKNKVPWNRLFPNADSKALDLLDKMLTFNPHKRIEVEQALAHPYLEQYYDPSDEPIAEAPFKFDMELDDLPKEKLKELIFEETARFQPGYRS
Chain of Serine/threonine-protein kinase 10 (Homo sapiens) (O94804 whole entry, looked up): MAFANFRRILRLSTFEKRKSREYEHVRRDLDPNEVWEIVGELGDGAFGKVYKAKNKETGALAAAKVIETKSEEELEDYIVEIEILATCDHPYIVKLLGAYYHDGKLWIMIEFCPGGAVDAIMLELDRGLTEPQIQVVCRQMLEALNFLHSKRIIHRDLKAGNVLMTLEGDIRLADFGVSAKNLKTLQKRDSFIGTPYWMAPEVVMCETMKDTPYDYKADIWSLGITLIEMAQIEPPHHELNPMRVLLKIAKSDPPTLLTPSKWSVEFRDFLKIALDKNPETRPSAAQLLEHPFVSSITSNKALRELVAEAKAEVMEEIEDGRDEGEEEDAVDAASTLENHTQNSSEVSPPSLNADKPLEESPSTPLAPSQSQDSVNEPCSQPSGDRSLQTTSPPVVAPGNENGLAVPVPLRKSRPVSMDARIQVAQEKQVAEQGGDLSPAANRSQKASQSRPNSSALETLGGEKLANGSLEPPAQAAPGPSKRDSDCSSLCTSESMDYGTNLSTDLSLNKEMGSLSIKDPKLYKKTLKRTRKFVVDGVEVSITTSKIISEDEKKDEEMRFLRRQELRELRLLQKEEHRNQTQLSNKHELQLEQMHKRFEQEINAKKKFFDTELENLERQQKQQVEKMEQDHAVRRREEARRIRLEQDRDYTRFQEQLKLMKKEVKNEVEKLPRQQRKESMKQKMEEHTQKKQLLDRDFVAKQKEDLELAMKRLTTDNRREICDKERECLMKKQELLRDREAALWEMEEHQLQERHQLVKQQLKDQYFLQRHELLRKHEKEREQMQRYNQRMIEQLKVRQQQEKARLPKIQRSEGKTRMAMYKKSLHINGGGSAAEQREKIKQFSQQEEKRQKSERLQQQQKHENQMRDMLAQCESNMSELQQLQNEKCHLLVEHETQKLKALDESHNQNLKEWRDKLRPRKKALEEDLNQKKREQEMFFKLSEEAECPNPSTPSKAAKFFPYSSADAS
Chain of RAC-alpha serine/threonine-protein kinase (P31749 whole entry): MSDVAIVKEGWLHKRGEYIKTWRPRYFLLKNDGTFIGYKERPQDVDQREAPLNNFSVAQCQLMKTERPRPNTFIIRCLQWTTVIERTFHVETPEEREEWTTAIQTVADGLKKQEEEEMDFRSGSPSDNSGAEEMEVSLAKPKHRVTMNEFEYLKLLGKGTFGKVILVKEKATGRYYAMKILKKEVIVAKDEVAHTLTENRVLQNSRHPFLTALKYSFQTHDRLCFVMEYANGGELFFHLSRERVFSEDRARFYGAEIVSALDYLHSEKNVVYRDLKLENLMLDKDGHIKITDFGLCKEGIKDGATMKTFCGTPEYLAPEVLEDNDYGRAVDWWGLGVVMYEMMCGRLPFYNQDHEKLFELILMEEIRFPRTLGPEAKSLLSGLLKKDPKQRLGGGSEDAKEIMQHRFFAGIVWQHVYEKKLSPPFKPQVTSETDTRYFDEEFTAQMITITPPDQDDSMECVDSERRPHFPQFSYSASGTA
Chain of Activin receptor type-2B (Homo sapiens) (Q13705 whole entry): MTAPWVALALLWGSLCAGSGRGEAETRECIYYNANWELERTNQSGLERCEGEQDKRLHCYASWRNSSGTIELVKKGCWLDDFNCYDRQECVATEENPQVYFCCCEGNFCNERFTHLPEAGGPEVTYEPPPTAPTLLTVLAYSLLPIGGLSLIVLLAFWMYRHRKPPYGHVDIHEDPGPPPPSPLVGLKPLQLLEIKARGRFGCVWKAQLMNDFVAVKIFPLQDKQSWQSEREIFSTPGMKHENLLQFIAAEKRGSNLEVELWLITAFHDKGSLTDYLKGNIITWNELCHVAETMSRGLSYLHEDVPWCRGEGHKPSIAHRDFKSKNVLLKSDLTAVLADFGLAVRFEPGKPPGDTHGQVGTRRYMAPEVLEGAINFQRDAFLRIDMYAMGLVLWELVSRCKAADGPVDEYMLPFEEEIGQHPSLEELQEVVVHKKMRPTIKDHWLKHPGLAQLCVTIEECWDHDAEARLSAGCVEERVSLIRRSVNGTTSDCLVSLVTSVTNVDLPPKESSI
Chain of Protein arginine N-methyltransferase 1 (Q99873 whole entry): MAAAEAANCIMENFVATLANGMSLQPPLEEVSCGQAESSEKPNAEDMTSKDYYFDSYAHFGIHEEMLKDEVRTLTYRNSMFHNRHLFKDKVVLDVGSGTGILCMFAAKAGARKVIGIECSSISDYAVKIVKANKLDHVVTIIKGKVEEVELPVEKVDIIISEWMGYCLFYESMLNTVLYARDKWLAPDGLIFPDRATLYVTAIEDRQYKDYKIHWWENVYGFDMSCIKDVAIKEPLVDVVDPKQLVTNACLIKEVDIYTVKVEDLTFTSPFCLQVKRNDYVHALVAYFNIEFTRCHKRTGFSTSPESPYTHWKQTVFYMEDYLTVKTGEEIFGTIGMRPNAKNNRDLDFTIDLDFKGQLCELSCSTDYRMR
Chain of Dual specificity protein kinase CLK3 (P49761 whole entry): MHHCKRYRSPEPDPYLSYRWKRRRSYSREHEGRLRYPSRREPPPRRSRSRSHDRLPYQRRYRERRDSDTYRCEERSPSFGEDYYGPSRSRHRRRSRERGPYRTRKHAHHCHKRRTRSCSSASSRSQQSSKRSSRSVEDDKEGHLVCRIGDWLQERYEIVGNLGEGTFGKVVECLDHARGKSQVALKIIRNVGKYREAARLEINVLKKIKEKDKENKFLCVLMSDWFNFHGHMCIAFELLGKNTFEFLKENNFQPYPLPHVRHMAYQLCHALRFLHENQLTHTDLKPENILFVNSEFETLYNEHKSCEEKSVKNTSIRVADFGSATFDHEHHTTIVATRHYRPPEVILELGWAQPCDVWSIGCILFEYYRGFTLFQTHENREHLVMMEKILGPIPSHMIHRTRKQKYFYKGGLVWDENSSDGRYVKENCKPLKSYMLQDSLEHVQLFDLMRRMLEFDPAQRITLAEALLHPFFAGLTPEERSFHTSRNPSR
Chain of Tyrosine-protein kinase Fes/Fps (Homo sapiens) (P07332 whole entry): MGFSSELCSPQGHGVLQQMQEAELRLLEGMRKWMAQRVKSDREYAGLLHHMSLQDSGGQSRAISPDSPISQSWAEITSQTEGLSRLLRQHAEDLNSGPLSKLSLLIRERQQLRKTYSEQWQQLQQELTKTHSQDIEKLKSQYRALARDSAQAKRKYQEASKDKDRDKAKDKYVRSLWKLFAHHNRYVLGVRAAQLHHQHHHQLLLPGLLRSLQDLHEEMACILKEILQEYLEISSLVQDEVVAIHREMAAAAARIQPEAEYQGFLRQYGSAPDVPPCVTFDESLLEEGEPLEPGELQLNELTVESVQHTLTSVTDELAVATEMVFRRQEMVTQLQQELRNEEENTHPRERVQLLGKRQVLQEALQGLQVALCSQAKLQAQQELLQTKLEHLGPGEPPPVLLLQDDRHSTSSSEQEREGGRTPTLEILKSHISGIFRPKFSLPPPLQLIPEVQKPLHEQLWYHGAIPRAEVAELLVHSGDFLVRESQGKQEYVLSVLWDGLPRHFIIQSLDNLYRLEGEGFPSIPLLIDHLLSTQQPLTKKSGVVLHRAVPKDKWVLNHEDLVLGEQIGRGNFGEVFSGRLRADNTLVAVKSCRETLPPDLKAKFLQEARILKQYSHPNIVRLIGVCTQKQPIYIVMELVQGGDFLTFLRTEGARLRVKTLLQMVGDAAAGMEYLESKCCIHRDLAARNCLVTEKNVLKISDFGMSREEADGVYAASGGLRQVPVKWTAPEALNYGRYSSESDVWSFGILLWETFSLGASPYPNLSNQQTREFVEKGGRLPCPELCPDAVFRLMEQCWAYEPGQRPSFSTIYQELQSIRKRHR

SMILES: COCCN1CCC(c2cc(CN(C)C(=O)c3cccc(Oc4ccccc4)c3)ccn2)CC1
- IC50 [1]: > 10 µM

SMILES: CN(C)CCOc1ccc(-c2nc(-c3ccncc3)c(-c3ccc4c(c3)CC/C4=N\O)[nH]2)cc1
- % of control [2]: 97%

SMILES: C=CC(=O)Nc1cccc(C(=O)Nc2ccc(Nc3cc(-c4[nH]c(SC)nc4C)ccn3)cc2)c1
- % of control ([3]; at 1 µM): 96%
- % of control ([3]; at 5 µM): 100%

SMILES: O=C(NOC[C@H](O)CO)c1ccc(F)c(F)c1Nc1ccc(I)cc1F
- % of control [4]: 100%

SMILES: CCC(=O)N1CC[C@H](Nc2ncnc3c2CN(c2cnc(OC)c(C(F)(F)F)c2)CC3)C1 [LENIOLISIB]
- IC50 [5]: > 10 µM

SMILES: CC[C@@H]1[C@H](F)C(=O)N[C@@H]1COc1nccc2cc(C(N)=O)c(OC)cc12 [ZIMLOVISERTIB]
- % of inhibition [6]: -97%

SMILES: COc1cc(Nc2nc(C)cc(-c3cnn4nc(OC)ccc34)n2)cc(C(F)(F)F)c1
- % of control [7]: 92%
- IC50 [8]: > 10 µM

SMILES: Cc1cc(F)c(C(=O)Nc2cccc(-c3nncn3C(C)C)n2)cc1-n1cnc(C2CC2)c1
- % of control [9]: 100%

SMILES: COCC(=O)NC/C=C/c1ccc2ncnc(Nc3ccc(Oc4ccc(C)nc4)c(C)c3)c2c1 [CP-724714]
- % of control [10]: 100%

SMILES: CN1Cc2nccc(-c3cn(C)nc3-c3ccc(F)cc3)c2C1=O
- % of inhibition [11]: 3%

SMILES: O[C@H]1CC[C@H](Nc2ncc3nc(Nc4c(F)cc(F)cc4F)n([C@H]4CCOC4)c3n2)CC1
- % of control [12]: 93%
